Here are results for four molecules from article PMC6019266 (Biochemistry, 2017).

Molecules are shown by their SMILES. In brackets after ≈: the same amount, converted by molar mass. Like-named read-outs stand apart in the source and are kept apart here.

One experiment deals with Rv0091 (Mycobacterium tuberculosis, UniProt P9WJM3). As to the kind of experiment: Dissociation constants. It counts as biochemical.
Experiment [1] deals with auto-inducer (AI-2) production. The note with it: cited from earlier work.
A further experiment relates to E. coli. The note with it: cited from earlier work.
The next experiment deals with Vibrio cholerae. The note with it: cited from earlier work.
Experiment [2] has as its system M. smegmatis strain mc^2155. As to the kind of experiment: Disc-diffusion growth inhibition assay. It counts as cell-based, Mycobacterium smegmatis. The conditions noted are these: 96 h, 37 °C. For orientation: In agar diffusion tests the substance spreads into inoculated agar from a disc or well.
The test system of experiment [3] is M. tuberculosis strain mc^26230. It is filed as cell-based, Mycobacterium tuberculosis. The note with it: disc diffusion, 96 h, 37 °C.
A further experiment has as its system H. pylori (J99). As to the kind of experiment: Antibacterial activity assay in liquid culture. It is filed as cell-based, Helicobacter pylori.

Chain of Rv0091 (P9WJM3 whole entry, looked up): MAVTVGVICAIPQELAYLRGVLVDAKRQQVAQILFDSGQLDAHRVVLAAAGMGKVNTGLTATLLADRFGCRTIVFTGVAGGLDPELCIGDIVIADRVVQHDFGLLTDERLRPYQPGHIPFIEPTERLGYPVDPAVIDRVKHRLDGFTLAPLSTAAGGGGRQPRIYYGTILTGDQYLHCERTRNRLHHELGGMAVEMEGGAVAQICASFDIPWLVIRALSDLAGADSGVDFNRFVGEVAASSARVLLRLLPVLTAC

For `CCCCSCC1CN(Cc2c[nH]c3c(N)ncnc23)C[C@H]1O` (stereo partly drawn) [Compound 13], the “weaker binding than HT-DADMe-ImmA” value at Rv0091 (ratio of dissociation constants) amounted to 15 times. In addition, the “effect on production of auto-inducer (AI-2)” value in experiment [1] was “inhibited production”. Further, the toxicity to growth entry with E. coli and in the experiment with Vibrio cholerae was “not toxic” throughout.

For `CCCCCCSC[C@H]1CN(Cc2c[nH]c3c(N)ncnc23)C[C@@H]1O` [Compound 14], the “bound tighter than MT-DADMe-ImmA (11)” value on Rv0091 (ratio of Ki values, Table 1) worked out at 17 times. In addition, the zone of clearance entry in experiment [2] (1000 μg/mL) and in experiment [3] (1000 μg/mL) was “small zone of clearance” in each case. Moreover, the “more potent than tetracycline” value in the experiment with H. pylori (J99) stood at 6 times. Further, the “IC50 (antibacterial activity; MIC50 in methods)” value in the experiment with H. pylori (J99) (72 h, 37 °C, OD600) came out at 0.013 ± 0.0018 µg/mL (≈ 0.0358 µM).

`CSC[C@@H]1CN(Cc2c[nH]c3c(N)ncnc23)C[C@H]1O` [Compound 20]: the “activity toward Rv0091” value at Rv0091 (at concentrations of ≤400 μM) is given as “no activity”.

Turning to `NC[C@H]1O[C@H](O[C@H]2[C@H](O)[C@@H](O[C@H]3O[C@H](CO)[C@@H](O)[C@H](N)[C@H]3O)[C@H](N)C[C@@H]2N)[C@H](O)[C@@H](O)[C@@H]1O` [Kanamycin, reference compound], the zone of clearance result in experiment [2] (100 μg/mL, antibiotic control) is “large zones of clearance”; in experiment [3] (100 μg/mL, antibiotic control), “large zones of clearance”.
